This passage reports Stability, Activity and Drug uptake results from ChEMBL document CHEMBL5029167, “Development of Asialoglycoprotein-Mediated Hepatocyte-Targeting Antitumor Prodrugs Triggered by Glutathione” (J Med Chem, 2021).

Activity calls are given as the source filed them. No cut-off for these calls is given here.

The nature of data set [1]: Prodrug release at pH 6.5 assessed as stability after 48 hrs in absence of GSH by LC-MS analysis. Format: ADME. Conditions: pH 6.5, 48 h.
In data set [2] the test system is H22. Description: Antitumor activity against mouse H22 cells implanted in Kunming mouse assessed as tumor growth inhibition at 10 mg/kg measured on day 7 by H and E staining based histopathological analysis. In kind it is functional, organism-based. Conditions: time 7.0 day.
Data set [3] in a line: Prodrug release at pH 7.4 assessed as stability after 48 hrs in absence of GSH by LC-MS analysis. Format: ADME. The settings on record: pH 7.4, 48 h.
Data set [4] in a line: Prodrug release assessed as stability after 24 hrs in presence of NADH by LC-MS analysis. In kind it is ADME.
Data set [5] is described as follows: Drug distribution in Kunming mouse liver at 10 mg/kg, iv measured after 3 hrs by confocal scanning microscopic analysis. Conditions: in vivo. Format: ADME, organism-based.
A short description of data set [6]: Toxicity in Kunming mouse implanted with mouse H22 cells assessed as change in organ weight at 10 mg/kg after 7 days. In kind it is organism-based. The settings on record: in vivo, 168 h, time 7 day.
A short description of data set [7]: Drug uptake in human HepG2 cells pretreated with galactose for 30 mins followed by compound addition and measured after 15 mins by confocal scanning microscopic analysis. The settings on record: hepg2, 0.75 h, time 45 min. In kind it is ADME, cell-based.
The nature of data set [8]: Toxicity in Kunming mouse assessed as change in body weight at 50 mg/kg. Format: organism-based. Conditions: in vivo.
A short description of data set [9]: Toxicity in Kunming mouse assessed as change in organ weight at 50 mg/kg. In kind it is organism-based. The settings on record: in vivo.
Data set [10] is described as follows: Toxicity in Kunming mouse implanted with mouse H22 cells assessed as change in body weight at 10 mg/kg after 7 days. The settings on record: in vivo, 168 h, time 7 day. Format: organism-based.
Data set [11] can be described thus: Drug uptake in human HepG2 cells at 10 uM after 15 mins by confocal scanning microscopic analysis. Format: ADME, cell-based. The settings on record: hepg2, 0.25 h.
Data set [12] can be described thus: Drug uptake in human A549 cells at 10 uM after 15 mins by confocal scanning microscopic analysis. Conditions: a549, 0.25 h. Format: ADME, cell-based.
The nature of data set [13]: Drug uptake in human HeLa cells at 10 uM after 15 mins by confocal scanning microscopic analysis. In kind it is ADME, cell-based. Conditions: 0.25 h.
The nature of data set [14]: Drug uptake in human SGC-7901 cells at 10 uM after 15 mins by confocal scanning microscopic analysis. In kind it is ADME, cell-based. Conditions: sgc-7901, 0.25 h.
Data set [15] can be described thus: Prodrug release at pH 6.5 assessed as stability after 120 mins in presence of GSH by LC-MS analysis. Format: ADME. Conditions: pH 6.5, 2 h.
In data set [16] the test system is H22. Nature of the data set: Antitumor activity against mouse H22 cells implanted in Kunming mouse assessed as tumor growth inhibition at 10 mg/kg measured on day 7. In kind it is functional. Further details: scale not given: the % may be the effect or the level left. The settings on record: time 7 day.
Data set [17] has as its system HepG2. Description: Cytotoxicity against human HepG2 cells at 10 to 80 uM after 24 hrs. Format: cell-based. The settings on record: hepg2, 24 h, dose 10-80 µM.
The nature of data set [18]: Toxicity in Kunming mouse implanted with mouse H22 cells assessed as change in body weight at 0.8 mg/kg after 7 days. Format: organism-based. The settings on record: in vivo, 168 h, time 7 day.
Data set [19] deals with H22. Nature of the data set: Antitumor activity against mouse H22 cells implanted in Kunming mouse assessed as tumor growth inhibition at 0.8 mg/kg measured on day 7. Format: functional. Further details: scale not given: the % may be the effect or the level left. The settings on record: time 7 day.
The nature of data set [20]: Toxicity in Kunming mouse implanted with mouse H22 cells assessed as change in organ weight at 0.8 mg/kg after 7 days. In kind it is organism-based. The settings on record: in vivo, 168 h, time 7 day.
Data set [21] is described as follows: Drug distribution in Kunming mouse liver at 6 mg/kg, iv measured after 3 hrs by confocal scanning microscopic analysis. In kind it is ADME, organism-based. The settings on record: in vivo.

`C=C[C@]1(C)CC[C@@H](C(=C)Cn2cc(CN3C(=O)c4cccc5c(N6CCN(C(=O)OCCSSCCOCC(=O)NC(COCc7cn([C@@H]8O[C@H](CO)[C@H](O)[C@H](O)[C@H]8O)nn7)(COCc7cn([C@@H]8O[C@H](CO)[C@H](O)[C@H](O)[C@H]8O)nn7)COCc7cn([C@@H]8O[C@H](CO)[C@H](O)[C@H](O)[C@H]8O)nn7)CC6)ccc(c45)C3=O)nn2)C[C@H]1C(=C)C`: the Stability entry in [1] is reported as “Stable”; in data set [3], “Stable”; in data set [4] it was 98.9%; in data set [15] it was “Unstable”. In addition, in data set [2], the result was Active. In addition, the Drug uptake result was “Active” in [5]; “Not Active” in [7]; “Active” in [11]; “Active” in data set [12]; “Active” in [13]; “Active” in data set [14]. In addition, the Activity result in [6] is reported as “Non-Toxic”; in data set [8], “Non-Toxic”; in data set [9], “Non-Toxic”; in [10] it was “Non-Toxic”; in data set [16], 51.22%; in data set [17] it was “Non-Toxic”.
As to `O=c1[nH]cc(F)c(=O)[nH]1` [FLUOROURACIL], the Activity result in data set [18] was “Non-Toxic”; in [19] it was 26.41%; in data set [20], “Non-Toxic”.
In the case of `C=C[C@]1(C)CC[C@@H](C(=C)Cn2cc(CN3C(=O)c4cccc5c(N6CCN(C(=O)OCCSSCCOCc7cn([C@@H]8O[C@H](CO)[C@H](O)[C@H](O)[C@H]8O)nn7)CC6)ccc(c45)C3=O)nn2)C[C@H]1C(=C)C`, the Drug uptake result is recorded as “Active” in data set [21]; “Not Active” in [7]; “Active” in data set [11]; “Active” in [12]; “Active” in [13]; “Active” in data set [14].
